# Data: BindingDB's records for doi:10.1016/j.bmcl.2010.01.018 (Schering-Plough Research Institute, 2010)
# Assay: Inhibition of Aurora 2 kinase
smiles,measurement,value
COc1c(O)cc2c3c(cc4ccc(O)cc4c13)NC2=O [aristololactam A IIIa],IC50,2140 nM
